Measured values: patent publication US8952024B2, “Herbicidal pyrimidone derivatives” (E I du Pont de Nemours and Company, priority 2009, dated 2015)

Tests used:
Assay in all cases: Test B pre-/postemergence plant response
Type in all cases: in vivo
[1] = tested on: large crabgrass (Digitaria sanguinalis)
In short: (§1)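 Compound in solvent + surfactant applied pre-em (loam/sand) or post-em (plants 2–18 cm, peat medium); greenhouse hold 13–15 days; visual 0–100 control score.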

kochia (Kochia scoparia) = tested on: kochia (Kochia scoparia)
In short: as §1

[2] = tested on: bermudagrass (Cynodon dactylon)
In short: as §1

[3] = tested on: yellow nutsedge (Cyperus esculentus)
In short: as §1

[4] = tested on: morningglory (Ipomoea coccinea)
In short: as §1

[5] = tested on: wheat (Triticum aestivum)
In short: as §1

[6] = tested on: cocklebur (Xanthium strumarium); settings: Preemergence
In short: as §1

[7] = tested on: downy bromegrass (Bromus tectorum)
In short: as §1

[8] = tested on: woolly cupgrass (Eriochloa villosa)
In short: as §1

[9] = tested on: velvetleaf (Abutilon theophrasti)
In short: as §1

soybean (Glycine max) = tested on: soybean (Glycine max)
In short: as §1

[10] = tested on: Italian ryegrass (Lolium multiflorum)
In short: as §1

[11] = Postemergence, 31 g ai/ha, 0 to 100 scale (0 no effect, 100 complete control)
[12] = Postemergence, 62 g ai/ha, scale 0 to 100 (0 no effect, 100 complete control)
[13] = Postemergence, 125 g ai/ha, scale 0 (no effect) to 100 (complete control), 13 to 15 days
[14] = Postemergence, 250 g ai/ha, scale 0 to 100 (0 no effect, 100 complete control), 13 to 15 days
[15] = Preemergence, 31 g ai/ha, scale 0 to 100 (0 no effect, 100 complete control)
[16] = Preemergence, 62 g ai/ha, scale 0 to 100 (0 no effect, 100 complete control)
[17] = Preemergence, 125 g ai/ha, scale 0 to 100, 0 no effect, 100 complete control
[18] = Preemergence, 250 g ai/ha, 0 to 100 scale

CCCCn1c(-c2cc(F)cc(F)c2)ncc(C(=O)C2=C(O)C3CCC(C3)C2=O)c1=O (centres unmarked) [Compound 245]
Plant response rating, Crabgrass, Large [1, 11]: 80 | Plant response rating, Crabgrass, Large [1, 12]: 100 | Plant response rating, Crabgrass, Large [1, 13]: 100 | Plant response rating, Crabgrass, Large [1, 14]: 100 | Plant response rating, Crabgrass, Large [1, 15]: 60 | Plant response rating, Crabgrass, Large [1, 16]: 100 | Plant response rating, Crabgrass, Large [1, 17]: 100 | Crabgrass, Large plant response rating [1, 18]: 100 | Plant response rating, Kochia (kochia (Kochia scoparia); [11]): 85 | Plant response rating, Kochia (kochia (Kochia scoparia); [12]): 100 | Plant response rating, Kochia (kochia (Kochia scoparia); [13]): 100 | Plant response rating, Kochia (kochia (Kochia scoparia); [14]): 100 | Plant response rating, Kochia (kochia (Kochia scoparia); [15]): 0 | Plant response rating, Kochia (kochia (Kochia scoparia); [16]): 45 | Plant response rating, Kochia (kochia (Kochia scoparia); [17]): 98 | Kochia plant response rating (kochia (Kochia scoparia); [18]): 100 | Plant response rating, Bermudagrass [2, 11]: 80 | Plant response rating, Bermudagrass [2, 12]: 100 | Plant response rating, Bermudagrass [2, 13]: 100 | Plant response rating, Bermudagrass [2, 14]: 100 | Plant response rating, Bermudagrass [2, 15]: 98 | Plant response rating, Bermudagrass [2, 16]: 100 | Plant response rating, Bermudagrass [2, 17]: 100 | Bermudagrass plant response rating ([2]; Preemergence, 250 g ai/ha, 0 to 100 scale, 0 no effect, 100 complete control): 100 | Plant response rating, Nutsedge, Yellow [3, 11]: 40 | Plant response rating, Nutsedge, Yellow [3, 12]: 45 | Plant response rating, Nutsedge, Yellow [3, 13]: 70 | Plant response rating, Nutsedge, Yellow [3, 14]: 75 | Plant response rating, Nutsedge, Yellow [3, 15]: 0 | Plant response rating, Nutsedge, Yellow [3, 16]: 0 | Plant response rating, Nutsedge, Yellow [3, 17]: 65 | Nutsedge, Yellow plant response rating [3, 18]: 80 | Plant response rating, Morningglory [4, 11]: 90 | Plant response rating, Morningglory [4, 12]: 100 | Plant response rating, Morningglory [4, 13]: 100 | Plant response rating, Morningglory [4, 14]: 100 | Plant response rating, Morningglory [4, 15]: 0 | Plant response rating, Morningglory [4, 16]: 0 | Plant response rating, Morningglory [4, 17]: 65 | Morningglory plant response rating [4, 18]: 100 | Plant response rating, Wheat [5, 11]: 75 | Plant response rating, Wheat [5, 12]: 95 | Plant response rating, Wheat [5, 13]: 95 | Plant response rating, Wheat [5, 14]: 98 | Plant response rating, Wheat [5, 15]: 0 | Plant response rating, Wheat [5, 16]: 0 | Plant response rating, Wheat [5, 17]: 5 | Wheat plant response rating [5, 18]: 15 | Plant response rating, Cocklebur ([6]; 31 g ai/ha, scale 0 to 100 (0 no effect, 100 complete control)): 0 | Plant response rating, Cocklebur ([6]; 62 g ai/ha, scale 0 to 100 (0 no effect, 100 complete control)): 0 | Plant response rating, Cocklebur ([6]; 125 g ai/ha, scale 0 to 100, 0 no effect, 100 complete control): 98 | Cocklebur plant response rating ([6]; 250 g ai/ha, 0 to 100 scale): 100 | Plant response rating, Bromegrass, Downy [7, 11]: 60 | Plant response rating, Bromegrass, Downy [7, 12]: 95 | Plant response rating, Bromegrass, Downy [7, 13]: 95 | Plant response rating, Bromegrass, Downy [7, 14]: 95 | Plant response rating, Bromegrass, Downy [7, 15]: 0 | Plant response rating, Bromegrass, Downy [7, 16]: 0 | Plant response rating, Bromegrass, Downy [7, 17]: 0 | Bromegrass, Downy plant response rating [7, 18]: 15 | Plant response rating, Cupgrass, Woolly [8, 11]: 100 | Plant response rating, Cupgrass, Woolly [8, 12]: 100 | Plant response rating, Cupgrass, Woolly [8, 13]: 100 | Plant response rating, Cupgrass, Woolly [8, 14]: 100 | Plant response rating, Cupgrass, Woolly [8, 15]: 50 | Plant response rating, Cupgrass, Woolly [8, 16]: 70 | Plant response rating, Cupgrass, Woolly [8, 17]: 80 | Cupgrass, Woolly plant response rating [8, 18]: 100 | Plant response rating, Velvetleaf [9, 11]: 100 | Plant response rating, Velvetleaf [9, 12]: 100 | Plant response rating, Velvetleaf [9, 13]: 100 | Plant response rating, Velvetleaf [9, 14]: 100 | Plant response rating, Velvetleaf [9, 15]: 95 | Plant response rating, Velvetleaf [9, 16]: 100 | Plant response rating, Velvetleaf [9, 17]: 100 | Velvetleaf plant response rating [9, 18]: 100 | Plant response rating, Soybean (soybean (Glycine max); [11]): 95 | Plant response rating, Soybean (soybean (Glycine max); [12]): 98 | Plant response rating, Soybean (soybean (Glycine max); [13]): 100 | Plant response rating, Soybean (soybean (Glycine max); [14]): 100 | Plant response rating, Soybean (soybean (Glycine max); [15]): 0 | Plant response rating, Soybean (soybean (Glycine max); [16]): 10 | Plant response rating, Soybean (soybean (Glycine max); [17]): 55 | Soybean plant response rating (soybean (Glycine max); [18]): 75 | Plant response rating, Ryegrass, Italian [10, 11]: 40 | Plant response rating, Ryegrass, Italian [10, 12]: 50 | Plant response rating, Ryegrass, Italian [10, 13]: 70 | Plant response rating, Ryegrass, Italian [10, 14]: 85 | Plant response rating, Ryegrass, Italian [10, 15]: 0 | Plant response rating, Ryegrass, Italian [10, 16]: 0 | Plant response rating, Ryegrass, Italian [10, 17]: 0 | Ryegrass, Italian plant response rating [10, 18]: 40
